System: HeLa cells
Experiment: Exposure of dasatinib-modified particles from endocytic vesicles to cytoplasm, seen as co-localization with EGFP-ABL1 fluorescence
Format: cell-based
Conditions: HeLa cells transfected with EGFP-ABL1 with dasatinib-particles; cells fixed by the additive, not observed in a living state
Text: In addition, ABL1 (GenBank Acc. No. NM—198291) which binds to dasatinib was used for another linker constituting a mediator.
EGFP-ABL1 expression vector was produced by a known method (Sambrook & Russell, 2001, Molecular Cloning, Cold Spring Harbor Laboratory Press). After HeLa cells were subcultured to 6,000 cells/well on a 96-well plate, the expression vector DNA was transfected into a cell as mentioned in Example 1.
The particles modified with dasatinib were introduced into the cell transfected with DNA in the following. The cultured HeLa cells were treated with the modified particles according to the following processes:
1) Streptavidin-magnetic particles were mixed with dasatinib-biotin and the mixture was allowed to be reacted with each other. As a result, the particles modified with dasatinib were prepared;
In this embodiment, Olympus fluorescence microscope, FV1000, equipped with the object lens of Uplan Apo 40×/0.85 was used to obtain transmitted images and fluorescent images in the cells.

Molecule	function as a cytoplasm exposure additive (exposure of particles to cytoplasm from endocytic vesicles)
CCO [ethanol]	exposed the particles to cytoplasm from endocytic vesicles effectively
CO [methanol]	exposed the particles to cytoplasm from endocytic vesicles effectively
paraformaldehyde	exposed the particles to cytoplasm from endocytic vesicles effectively

Source: patent publication US20110223666A1, “CYTOPLASM EXPOSURE ADDITIVE AND METHOD FOR EXPOSING PARTICLES DELIVERED INTO CELL TO CYTOPLASM FROM ENDOCYTIC VESICLES IN INTACT CELL” (MEDISCOV INC., priority 2008, published 2011)
